Patent publication US20180246095A1, “COMPOSITIONS AND METHODS FOR DIAGNOSING AND TREATING LYME DISEASE” (priority 2015, published 2018)

System: B. burgdorferi B31
Test: RNA-Seq gene expression profile of B. burgdorferi persisters that survived antibiotic treatment, compared with drug free control
Type: cell-based, Borrelia burgdorferi
Experimental: RNA Sequencing (RNA-Seq) was performed to determine the gene expression profile of B. burgdorferi persisters that survived antibiotic treatment using next generation sequencing to shed light on the mechanisms of B. burgdorferi persistence. B. burgdorferi B31 cultures were grown for 5 days to 1×10^7 spirochetes/ml in BSK-H medium followed by treatment with 50 μg/ml doxycycline or 50 μg/ml amoxicillin for 6 days. Triplicate biological samples were used for each group. The total RNA was extracted and ribosomal RNA was removed prior to preparation of cDNA libraries for Illumina sequencing. […] The RNA-Seq data was analyzed by BLAST analysis and mapped to KEGG pathways.

## CC1(C)S[C@@H]2[C@H](NC(=O)[C@H](N)c3ccc(O)cc3)C(=O)N2[C@H]1C(=O)O [Amo]
  Expression predicted RNA antisense: BB_0034: 64256
  Expression predicted RNA antisense: BB_0147: 71642
  Expression predicted RNA antisense: BB_0269: 39823
  Expression predicted RNA antisense: BB_0465: 29768
  Expression predicted RNA antisense: BB_0559: 39487
  Expression predicted RNA antisense: BB_0631: 35398
  Expression predicted RNA antisense: BB_A59: 70553
  Expression predicted RNA antisense: BB_B22: 44966
  Expression predicted RNA antisense: fusA: 45574
  Expression predicted RNA antisense: lp6.6: 140114
  Expression predicted RNA antisense: napA: 19231
  Expression predicted RNA antisense: ospA ospB: 102443
  Expression predicted RNA antisense: rpsM: 33897
  Expression predicted RNA antisense: tRNA-Gln-1 BB_0786: 25214
5S ribosomal RNA
  Expression 5S_rrlB BB_r03: 0
6.6 kDa lipoprotein
  Expression lp6.6 BB_A62: 115
23S ribosomal RNA
  Expression 23S_rrlA BB_r02: 3005
  Expression 23S_rrlB BB_r04: 3039
30S ribosomal protein S8
  Expression rpsH BB_0492: 14
30S ribosomal protein S9
  Expression rpsI BB_0338: 66
30S ribosomal protein S17
  Expression rpsQ BB_0487: 2
30S ribosomal protein S21
  Expression rpsU BB_0256: 34
50S ribosomal protein L9
  Expression rplI BB_0112: 23
50S ribosomal protein L13
  Expression rplM BB_0339: 21
50S ribosomal protein L17
  Expression rplQ BB_0503: 17
50S ribosomal protein L24
  Expression rplX BB_0489: 6
50S ribosomal protein L29
  Expression rpmC BB_0486: 0
50S ribosomal protein L31
  Expression rpmE BB_0229: 52
50S ribosomal protein L32
  Expression rpmF BB_0703: 28
50S ribosomal protein L36
  Expression rpmJ BB_0499: 14
Ala tRNA
  Expression tRNA-Ala-1 BB_t05: 0
Arg tRNA
  Expression BB_t21: 0
Asn tRNA
  Expression tRNA-Asn-1 BB_t11: 26
Asp tRNA
  Expression tRNA-Asp-1 BB_t12: 0
BdrH
  Expression bdrH BB_R27: 15
BdrK
  Expression bdrK BB_M34: 0
BdrR protein
  Expression bdrR BB_N27: 0
ErpK protein
  Expression erpK BB_M38: 0
FAD-dependent thymidylate synthase
  Expression thyX BB_A76: 3
Gln tRNA
  Expression tRNA-Gln-1 BB_t18: 0
Gly tRNA
  Expression BB_t25: 1187
L-lactate dehydrogenase
  Expression BB_0087: 48
Leu tRNA
  Expression tRNA-Leu-4 BB_t17: 15
Lys tRNA
  Expression BB_t23: 0
M23 peptidase domain-containing protein
  Expression BB_0262: 145
Met tRNA
  Expression BB_t28: 0
P35 antigen
  Expression BB_A64: 9453
PF-32 protein
  Expression BB_P32: 15
PF-49 protein
  Expression BB_M33: 0
  Expression BB_P33: 0
PTS system glucose-specific transporter subunit IIA
  Expression BB_0559: 177
Phe tRNA
  Expression BB_t30: 0
RepU
  Expression BB_F03: 0
Ser tRNA
  Expression BB_t20: 7
  Expression tRNA-Ser-3 BB_t06: 0
SsrA-binding protein
  Expression smpB BB_0033: 176
Thr tRNA
  Expression BB_t33: 11
UDP-N-acetylenolpyruvoylglucosamine reductase
  Expression murB BB_0598: 249
V-type ATP synthase subunit K
  Expression BB_0090: 1
Adenine deaminase
  Expression BB_H33: 2
Antigen P35
  Expression BB_H32: 5
Apolipoprotein N-acyltransferase
  Expression lnt BB_0237: 2060
carboxypeptidase
  Expression BB_0582: 96
Chemotaxis protein methyltransferase
  Expression cheR BB_0040: 233
Complement regulator-acquiring surface protein
  Expression BB_H06: 10
Cytidine deaminase
  Expression cdd BB_0618: 267
Flagellar basal body rod protein FlgB
  Expression flgB BB_0294: 5
Flagellar basal body-associated protein FliL
  Expression fliL BB_0279: 6
Flagellar protein FlbA
  Expression BB_0287: 0
flagellin
  Expression BB_0147: 73
Gene BB_0138, hypothetical protein
  Expression BB_0138: 0
Gene BB_0305, hypothetical protein
  Expression BB_0305: 0
Gene BB_0321, hypothetical protein
  Expression BB_0321: 4
Gene BB_A21, PF-49 protein
  Expression BB_A21: 1
Gene BB_E09, protein p23
  Expression BB_E09: 0
Gene BB_E16, hypothetical protein
  Expression BB_E16: 0
Gene BB_E17, hypothetical protein
  Expression BB_E17: 0
Gene BB_E18, hypothetical protein
  Expression BB_E18: 0
Gene BB_E19, hypothetical protein
  Expression BB_E19: 0
Gene BB_E20, hypothetical protein
  Expression BB_E20: 0
Gene BB_E21, hypothetical protein
  Expression BB_E21: 0
Gene BB_E22, pyrazinamidase/nicotinamidase PncA
  Expression BB_E22: 0
Gene BB_E31, antigen, P35, putative
  Expression BB_E31: 0
Gene BB_F01, hypothetical protein
  Expression BB_F01: 0
Gene BB_F02, hypothetical protein
  Expression BB_F02: 0
Gene BB_F06, hypothetical protein
  Expression BB_F06: 0
Gene BB_F08, hypothetical protein
  Expression BB_F08: 0
Gene BB_F14, hypothetical protein
  Expression BB_F14: 0
Gene BB_F17, putative transmembrane protein
  Expression BB_F17: 0
Gene BB_F20, BBF20
  Expression BB_F20: 0
Gene BB_F23, PF49
  Expression BB_F23: 0
Gene BB_F24, PF32
  Expression BB_F24: 0
Gene BB_F25, hypothetical protein
  Expression BB_F25: 0
Gene BB_F26, hypothetical protein
  Expression BB_F26: 0
Gene BB_F0034, hypothetical protein
  Expression BB_F0034: 0
Gene BB_F0039, hypothetical protein
  Expression BB_F0039: 0
Gene BB_F0040, hypothetical protein
  Expression BB_F0040: 0
Gene BB_F0041, outer surface protein VlsE1
  Expression BB_F0041: 0
Gene BB_I01, hypothetical protein
  Expression BB_I01: 0
Gene BB_I02, hypothetical protein
  Expression BB_I02: 0
Gene BB_I06, MTA/SAH nucleosidase
  Expression BB_I06: 0
Gene BB_I12, hypothetical protein
  Expression BB_I12: 0
Gene BB_I15, virulence associated lipoprotein
  Expression BB_I15: 0
Gene BB_I18, hypothetical protein
  Expression BB_I18: 0
Gene BB_I19, hypothetical protein
  Expression BB_I19: 0
Gene BB_I20, hypothetical protein
  Expression BB_I20: 0
Gene BB_I21, PF-32 protein
  Expression BB_I21: 0
Gene BB_I22, PF-49 protein
  Expression BB_I22: 0
Gene BB_I26, multidrug-efflux transporter
  Expression BB_I26: 0
Gene BB_I29, virulence associated lipoprotein
  Expression BB_I29: 0
Gene BB_I34, virulence associated lipoprotein
  Expression BB_I34: 0
Gene BB_I36, antigen P35
  Expression BB_I36: 0
Gene BB_I38, surface antigen
  Expression BB_I38: 0
Gene BB_I41, hypothetical protein
  Expression BB_I41: 0
Gene BB_I42, outer membrane protein
  Expression BB_I42: 0
Gene BB_J42, hypothetical protein
  Expression BB_J42: 0
Gene BB_J0058, hypothetical protein
  Expression BB_J0058: 0
Gene BB_K01, lipoprotein
  Expression BB_K01: 0
Gene BB_K07, lipoprotein
  Expression BB_K07: 0
Gene BB_K09, hypothetical protein
  Expression BB_K09: 0
Gene BB_K13, hypothetical protein
  Expression BB_K13: 0
Gene BB_K15, antigen P35
  Expression BB_K15: 0
Gene BB_K17, adenine deaminase
  Expression BB_K17: 0
Gene BB_K19, lipoprotein
  Expression BB_K19: 0
Gene BB_K21, PF-32 protein
  Expression BB_K21: 0
Gene BB_K22, hypothetical protein
  Expression BB_K22: 0
Gene BB_K23, hypothetical protein
  Expression BB_K23: 0
Gene BB_K24, PF-49 protein
  Expression BB_K24: 0
Gene BB_K32, fibronectin-binding protein
  Expression BB_K32: 0
Gene BB_K33, hypothetical protein
  Expression BB_K33: 0
Gene BB_K34, hypothetical protein
  Expression BB_K34: 0
Gene BB_K35, hypothetical protein
  Expression BB_K35: 0
Gene BB_K40, hypothetical protein
  Expression BB_K40: 0
Gene BB_K41, hypothetical protein
  Expression BB_K41: 0
Gene BB_K42, hypothetical protein
  Expression BB_K42: 0
Gene BB_K45, immunogenic protein P37
  Expression BB_K45: 0
Gene BB_K47, hypothetical protein
  Expression BB_K47: 0
Gene BB_K48, immunogenic protein P37
  Expression BB_K48: 0
Gene BB_K49, hypothetical protein
  Expression BB_K49: 0
Gene BB_K50, immunogenic protein P37
  Expression BB_K50: 0
Gene BB_K52, lipoprotein
  Expression BB_K52: 0
Gene BB_K53, outer membrane protein
  Expression BB_K53: 0
Gene BB_K54, hypothetical protein
  Expression BB_K54: 0
Gene BB_K0058, hypothetical protein
  Expression BB_K0058: 0
Gene BB_K0059, hypothetical protein
  Expression BB_K0059: 0
Gene BB_L15, hypothetical protein
  Expression BB_L15: 0
Gene BB_L16, hypothetical protein
  Expression BB_L16: 0
Gene BB_L17, hypothetical protein
  Expression BB_L17: 0
Gene BB_L18, hypothetical protein
  Expression BB_L18: 0
Gene BB_L21, hypothetical protein
  Expression BB_L21: 0
Gene BB_L22, hypothetical protein
  Expression BB_L22: 0
Gene BB_L29, hypothetical protein
  Expression BB_L29: 0
Gene BB_L30, hypothetical protein
  Expression BB_L30: 1
Gene BB_L31, hypothetical protein
  Expression BB_L31: 0
Gene BB_L32, PF-32 protein
  Expression BB_L32: 0
Gene BB_N08, hypothetical protein
  Expression BB_N08: 0
Gene BB_N33, PF-49 protein
  Expression BB_N33: 1
Gene BB_Q03, outer membrane protein
  Expression BB_Q03: 0
Gene BB_Q05, antigen, P35
  Expression BB_Q05: 0
Gene BB_Q07, plasmid partition protein
  Expression BB_Q07: 0
Gene BB_Q08, PF-32 protein
  Expression BB_Q08: 0
Gene BB_Q09, hypothetical protein
  Expression BB_Q09: 0
Gene BB_Q40, PF-32 protein
  Expression BB_Q40: 0
Gene BB_Q48, hypothetical protein
  Expression BB_Q48: 0
Gene BB_Q49, hypothetical protein
  Expression BB_Q49: 0
Gene BB_Q67, adenine specific DNA methyltransferase
  Expression BB_Q67: 0
Gene BB_Q89, lipoprotein
  Expression BB_Q89: 5
Gene BB_T01, hypothetical protein
  Expression BB_T01: 0
Gene BB_T02, hypothetical protein
  Expression BB_T02: 0
Gene BB_T03, hypothetical protein
  Expression BB_T03: 0
Gene BB_T04, hypothetical protein
  Expression BB_T04: 0
Gene BB_T06, Sua5/YciO/YrdC/YwlC family protein
  Expression BB_T06: 0
Gene BB_T07, outer membrane protein
  Expression BB_T07: 0
Gene BB_U01, hypothetical protein
  Expression BB_U01: 0
Gene BB_U02, hypothetical protein
  Expression BB_U02: 2
Gene BB_U04, protein BBC01
  Expression BB_U04: 0
